Values joined by “and” are separate entries in the source; they are usually repeats but may differ in a detail not shown here. Equal entries are not always repeated.

This passage reports IC50 results from US8658646B2, “Pyrrolopyrazine kinase inhibitors” (Hoffmann-LaRoche Inc., priority 2011, dated 2014).

T1 sequence (P52333 822-1111 limits assumed): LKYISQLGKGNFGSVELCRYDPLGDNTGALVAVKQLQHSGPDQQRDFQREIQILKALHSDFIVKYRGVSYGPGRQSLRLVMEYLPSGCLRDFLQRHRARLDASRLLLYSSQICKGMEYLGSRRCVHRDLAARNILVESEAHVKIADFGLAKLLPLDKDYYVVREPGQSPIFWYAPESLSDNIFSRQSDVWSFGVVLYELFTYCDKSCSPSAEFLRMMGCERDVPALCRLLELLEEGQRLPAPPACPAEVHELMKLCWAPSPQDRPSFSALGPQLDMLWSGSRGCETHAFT

This experiment concerns the target T1, JAK3: Recombinant human kinase domain (Homo sapiens, UniProt P52333).
T1 construct: JAK3: Recombinant human kinase domain from Millipore (Cat #14-629) or prepared; purchased Millipore 14-629
The experiment in a line: Determination of IC50 of Janus Kinase (JAK) inhibition, radioactive end-point 33P-ATP assay, JAK3. It is filed as biochemical. The settings on record: ATP 1.5 uM, peptide 50 uM, 20 minutes, read-out: JAK3-INHIB-DR/v1~NO ADDITIVE~Enzyme_Conc = 100.
Take `C[C@H](NC(=O)c1c[nH]c2ncc(-c3nn(C)c4cc(Cl)cc(F)c34)nc12)C1CC1` [Example I-141, 2-(6-Chloro-4-fluoro-1-methyl-1H-indazol-3-yl)-5H-pyrrolo[2,3-b]pyrazine-7-carboxylic acid ((S)-1-cyclopropyl-ethyl)-amide]: the IC50 stood at 3.77 nM.

As for `Cn1nc(-c2cnc3[nH]cc(C(=O)NC4CCCC(=O)C4)c3n2)c2ccc(Cl)cc21` (centres unmarked) [Example I-147, 2-(6-Chloro-1-methyl-1H-indazol-3-yl)-5H-pyrrolo[2,3-b]pyrazine-7-carboxylic acid (3-oxo-cyclohexyl)-amide], the IC50 was found to be 38.4 nM.

Turning to `COCC(C)NC(=O)c1c[nH]c2ncc(-c3nn(C)c4cc(Cl)ccc34)nc12` (centres unmarked) [Example I-152, 2-(6-Chloro-1-methyl-1H-indazol-3-yl)-5H-pyrrolo[2,3-b]pyrazine-7-carboxylic acid (2-methoxy-1-methyl-ethyl)-amide], the IC50 was found to be 1.15 nM.

In the case of `CC1CCCCC1NC(=O)c1c[nH]c2ncc(-c3nn(C)c4cc(Cl)ccc34)nc12` (centres unmarked) [Example I-153, 2-(6-Chloro-1-methyl-1H-indazol-3-yl)-5H-pyrrolo[2,3-b]pyrazine-7-carboxylic acid (2-methyl-cyclohexyl)-amide], the IC50 was 4.02 nM.

With `CC[C@H](COC)NC(=O)c1c[nH]c2ncc(-c3nn(C)c4cc(Cl)ccc34)nc12` [Example I-162, 2-(6-Chloro-1-methyl-1H-indazol-3-yl)-5H-pyrrolo[2,3-b]pyrazine-7-carboxylic acid ((R)-1-methoxymethyl-propyl)-amide], the IC50 was found to be 11.3 nM.

`C[C@@H](CO)NC(=O)c1c[nH]c2ncc(-c3nn(C)c4cc(Cl)ccc34)nc12` [Example I-164, 2-(6-Chloro-1-methyl-1H-indazol-3-yl)-5H-pyrrolo[2,3-b]pyrazine-7-carboxylic acid ((S)-2-hydroxy-1-methyl-ethyl)-amide]: the IC50 amounted to 17 nM.

Consider `COC[C@H](C)NC(=O)c1c[nH]c2ncc(-c3nn(C)c4cc(Cl)cc(F)c34)nc12` [Example I-170, 2-(6-Chloro-4-fluoro-1-methyl-1H-indazol-3-yl)-5H-pyrrolo[2,3-b]pyrazine-7-carboxylic acid ((S)-2-methoxy-1-methyl-ethyl)-amide], for which the IC50 was 7.12 nM.

With `CCOC[C@H](C)NC(=O)c1c[nH]c2ncc(-c3nn(C)c4cc(Cl)ccc34)nc12` [Example I-171, 2-(6-Chloro-1-methyl-1H-indazol-3-yl)-5H-pyrrolo[2,3-b]pyrazine-7-carboxylic acid ((S)-2-ethoxy-1-methyl-ethyl)-amide], the IC50 was 5.78 nM.

For `CC[C@@H](COC)NC(=O)c1c[nH]c2ncc(-c3nn(C)c4cc(Cl)ccc34)nc12` [Example I-173, 2-(6-Chloro-1-methyl-1H-indazol-3-yl)-5H-pyrrolo[2,3-b]pyrazine-7-carboxylic acid ((S)-1-methoxymethyl-propyl)-amide], the IC50 came to 3.56 nM.

Take `COC[C@@H](NC(=O)c1c[nH]c2ncc(-c3nn(C)c4cc(Cl)ccc34)nc12)C(=O)N1CC(F)C1` [Example I-174, 2-(6-Chloro-1-methyl-1H-indazol-3-yl)-5H-pyrrolo[2,3-b]pyrazine-7-carboxylic acid [(R)-2-(3-fluoro-azetidin-1-yl)-1-methoxymethyl-2-oxo-ethyl]-amide]: the IC50 turned out to be 1.09 nM.

Turning to `COC[C@@H](NC(=O)c1c[nH]c2ncc(-c3nn(C)c4cc(Cl)ccc34)nc12)C(=O)N1CC(C#N)C1` [Example I-175, 2-(6-Chloro-1-methyl-1H-indazol-3-yl)-5H-pyrrolo[2,3-b]pyrazine-7-carboxylic acid [(R)-2-(3-cyano-azetidin-1-yl)-1-methoxymethyl-2-oxo-ethyl]-amide], the IC50 was 0.54 nM.

Take `C[C@@H](O)[C@@H](CO)NC(=O)c1c[nH]c2ncc(-c3nn(C)c4cc(F)ccc34)nc12` [Example I-176, 2-(6-Fluoro-1-methyl-1H-indazol-3-yl)-5H-pyrrolo[2,3-b]pyrazine-7-carboxylic acid ((1R,2R)-2-hydroxy-1-hydroxymethyl-propyl)-amide]: the IC50 came to 165 nM.

For `CC[C@@H](C)NC(=O)c1c[nH]c2ncc(-c3nn(C)c4cc(F)ccc34)nc12` [Example I-180, 2-(6-Fluoro-1-methyl-1H-indazol-3-yl)-5H-pyrrolo[2,3-b]pyrazine-7-carboxylic acid ((R)-sec-butyl)-amide], the IC50 came to 3.89 nM.

As for `[2H]C([2H])([2H])OC[C@H](C)NC(=O)c1c[nH]c2ncc(-c3nn(C)c4cc(F)ccc34)nc12` [Example I-182, 2-(6-Fluoro-1-methyl-1H-indazol-3-yl)-5H-pyrrolo[2,3-b]pyrazine-7-carboxylic acid ((S)-1-methyl-2-trideuteromethoxy-ethyl)-amide], the IC50 came out at 1.07 nM.

Regarding `CC(CC(F)(F)F)NC(=O)c1c[nH]c2ncc(-c3nn(C)c4cc(F)ccc34)nc12` (centres unmarked) [Example I-185, 2-(6-Fluoro-1-methyl-1H-indazol-3-yl)-5H-pyrrolo[2,3-b]pyrazine-7-carboxylic acid (3,3,3-trifluoro-1-methyl-propyl)-amide], the IC50 amounted to 5.03 nM.

Take `CC(C)CC(C)NC(=O)c1c[nH]c2ncc(-c3nn(C)c4cc(F)ccc34)nc12` (centres unmarked) [Example I-187, 2-(6-Fluoro-1-methyl-1H-indazol-3-yl)-5H-pyrrolo[2,3-b]pyrazine-7-carboxylic acid (1,3-dimethyl-butyl)-amide]: the IC50 came out at 20.4 nM.

For the compound `C[C@H](CO)NC(=O)c1c[nH]c2ncc(-c3nn(C)c4cc(Cl)ccc34)nc12` [Example I-200, 2-(6-Chloro-1-methyl-1H-indazol-3-yl)-5H-pyrrolo[2,3-b]pyrazine-7-carboxylic acid ((R)-2-hydroxy-1-methyl-ethyl)-amide], the IC50 was 54.5 nM.

Take `CC(COc1ccccc1)NC(=O)c1c[nH]c2ncc(-c3nn(C)c4cc(F)ccc34)nc12` (centres unmarked) [Example I-202, 2-(6-Fluoro-1-methyl-1H-indazol-3-yl)-5H-pyrrolo[2,3-b]pyrazine-7-carboxylic acid (1-methyl-2-phenoxy-ethyl)-amide]: the IC50 amounted to 136 nM.

For `C[C@H](CCC#N)NC(=O)c1c[nH]c2ncc(-c3nn(C)c4cc(Cl)ccc34)nc12` [Example I-205, 2-(6-Chloro-1-methyl-1H-indazol-3-yl)-5H-pyrrolo[2,3-b]pyrazine-7-carboxylic acid ((R)-3-cyano-1-methyl-propyl)-amide], the IC50 turned out to be 18.4 nM.

Consider `Cn1nc(-c2cnc3[nH]cc(C(=O)NC4(c5cccc(Br)c5)CCC4)c3n2)c2ccc(F)cc21` [Example I-209, 2-(6-Fluoro-1-methyl-1H-indazol-3-yl)-5H-pyrrolo[2,3-b]pyrazine-7-carboxylic acid [1-(3-bromo-phenyl)-cyclobutyl]-amide], for which the IC50 was > 1000 nM and 830 nM.

For the compound `Cn1nc(-c2cnc3[nH]cc(C(=O)NC4(c5ccc(Br)cc5)CCC4)c3n2)c2ccc(F)cc21` [Example I-210, 2-(6-Fluoro-1-methyl-1H-indazol-3-yl)-5H-pyrrolo[2,3-b]pyrazine-7-carboxylic acid [1-(4-bromo-phenyl)-cyclobutyl]-amide], the IC50 was found to be 102 nM.

As to `Cn1nc(-c2cnc3[nH]cc(C(=O)N[C@H](c4ccc(Br)cc4)C(F)(F)F)c3n2)c2ccc(F)cc21` [Example I-211, 2-(6-Fluoro-1-methyl-1H-indazol-3-yl)-5H-pyrrolo[2,3-b]pyrazine-7-carboxylic acid [(R)-1-(4-bromo-phenyl)-2,2,2-trifluoro-ethyl)-amide], the IC50 is more than 1000 nM.

Consider `COC[C@H](C)NC(=O)c1c[nH]c2ncc(-c3nn(C)c4cc(F)c(F)cc34)nc12` [Example I-212, 2-(5,6-Difluoro-1-methyl-1H-indazol-3-yl)-5H-pyrrolo[2,3-b]pyrazine-7-carboxylic acid ((S)-2-methoxy-1-methyl-ethyl)-amide], for which the IC50 turned out to be 2.12 nM.

As for `Cn1nc(-c2cnc3[nH]cc(C(=O)N[C@@H]4CCN(Cc5ccccc5)C4)c3n2)c2ccc(F)cc21` [Example I-213, 2-(6-Fluoro-1-methyl-1H-indazol-3-yl)-5H-pyrrolo[2,3-b]pyrazine-7-carboxylic acid ((R)-1-benzyl-pyrrolidin-3-yl)-amide], the IC50 turned out to be 76.1 nM.

For `Cn1nc(-c2cnc3[nH]cc(C(=O)N[C@@H]4CCN(CC#N)C4)c3n2)c2ccc(F)cc21` [Example I-214, 2-(6-Fluoro-1-methyl-1H-indazol-3-yl)-5H-pyrrolo[2,3-b]pyrazine-7-carboxylic acid ((R)-1-cyanomethyl-pyrrolidin-3-yl)-amide], the IC50 was found to be 27.3 nM.

Turning to `C[C@@H](NC(=O)c1c[nH]c2ncc(-c3nn(C)c4cc(F)ccc34)nc12)c1cccc(Br)c1` [Example I-215, 2-(6-Fluoro-1-methyl-1H-indazol-3-yl)-5H-pyrrolo[2,3-b]pyrazine-7-carboxylic acid [(R)-1-(3-bromo-phenyl)-ethyl]-amide], the IC50 stood at 27.3 nM.

With `C[C@@H](NC(=O)c1c[nH]c2ncc(-c3nn(C)c4cc(F)ccc34)nc12)c1ccc(Br)cc1` [Example I-216, 2-(6-Fluoro-1-methyl-1H-indazol-3-yl)-5H-pyrrolo[2,3-b]pyrazine-7-carboxylic acid [(R)-1-(4-bromo-phenyl)-ethyl]-amide], the IC50 stood at 13 nM.

As for `C[C@@H](NC(=O)c1c[nH]c2ncc(-c3nn(C)c4cc(F)ccc34)nc12)c1cccc(C#N)c1` [Example I-217, 2-(6-Fluoro-1-methyl-1H-indazol-3-yl)-5H-pyrrolo[2,3-b]pyrazine-7-carboxylic acid [(R)-1-(3-cyano-phenyl)-ethyl]-amide], the IC50 was 23.2 nM.

`C[C@@H](NC(=O)c1c[nH]c2ncc(-c3nn(C)c4cc(F)ccc34)nc12)c1ccc(C#N)cc1` [Example I-218, 2-(6-Fluoro-1-methyl-1H-indazol-3-yl)-5H-pyrrolo[2,3-b]pyrazine-7-carboxylic acid [(R)-1-(4-cyano-phenyl)-ethyl]-amide]: the IC50 was found to be 14.7 nM.
